# Results reported in patent publication US10738040B2, “Compounds, compositions, and methods for increasing CFTR activity” (Proteostasis Therapeutics, Inc., priority 2014, dated 2020).
# Marks after values point to notes of the source that are not given here.
# Key:
# ΔF508-CFTR [1] = molecular target: T1, ΔF508-CFTR (Homo sapiens, UniProt P13569, DEL508-508); experiment: hBE equivalent current (Ieq) assay; assay type: cell-based; conditions: compound at 10 uM and VX-809 at 1 uM, relative to VX-809 (1 uM); primary lung epithelial cells homozygous for ΔF508, 24 hours treatment; AUC of equivalent chloride current
# T1 construct: Primary lung epithelial cells homozygous for the Cystic Fibrosis-causing ΔF508 mutation were differentiated; endogenous in cells; host or cells: primary human lung (bronchial) epithelial cells homozygous for ΔF508, differentiated at air-liquid interface
# T1 sequence (P13569 with tags, fused parts or gaps DEL508-508): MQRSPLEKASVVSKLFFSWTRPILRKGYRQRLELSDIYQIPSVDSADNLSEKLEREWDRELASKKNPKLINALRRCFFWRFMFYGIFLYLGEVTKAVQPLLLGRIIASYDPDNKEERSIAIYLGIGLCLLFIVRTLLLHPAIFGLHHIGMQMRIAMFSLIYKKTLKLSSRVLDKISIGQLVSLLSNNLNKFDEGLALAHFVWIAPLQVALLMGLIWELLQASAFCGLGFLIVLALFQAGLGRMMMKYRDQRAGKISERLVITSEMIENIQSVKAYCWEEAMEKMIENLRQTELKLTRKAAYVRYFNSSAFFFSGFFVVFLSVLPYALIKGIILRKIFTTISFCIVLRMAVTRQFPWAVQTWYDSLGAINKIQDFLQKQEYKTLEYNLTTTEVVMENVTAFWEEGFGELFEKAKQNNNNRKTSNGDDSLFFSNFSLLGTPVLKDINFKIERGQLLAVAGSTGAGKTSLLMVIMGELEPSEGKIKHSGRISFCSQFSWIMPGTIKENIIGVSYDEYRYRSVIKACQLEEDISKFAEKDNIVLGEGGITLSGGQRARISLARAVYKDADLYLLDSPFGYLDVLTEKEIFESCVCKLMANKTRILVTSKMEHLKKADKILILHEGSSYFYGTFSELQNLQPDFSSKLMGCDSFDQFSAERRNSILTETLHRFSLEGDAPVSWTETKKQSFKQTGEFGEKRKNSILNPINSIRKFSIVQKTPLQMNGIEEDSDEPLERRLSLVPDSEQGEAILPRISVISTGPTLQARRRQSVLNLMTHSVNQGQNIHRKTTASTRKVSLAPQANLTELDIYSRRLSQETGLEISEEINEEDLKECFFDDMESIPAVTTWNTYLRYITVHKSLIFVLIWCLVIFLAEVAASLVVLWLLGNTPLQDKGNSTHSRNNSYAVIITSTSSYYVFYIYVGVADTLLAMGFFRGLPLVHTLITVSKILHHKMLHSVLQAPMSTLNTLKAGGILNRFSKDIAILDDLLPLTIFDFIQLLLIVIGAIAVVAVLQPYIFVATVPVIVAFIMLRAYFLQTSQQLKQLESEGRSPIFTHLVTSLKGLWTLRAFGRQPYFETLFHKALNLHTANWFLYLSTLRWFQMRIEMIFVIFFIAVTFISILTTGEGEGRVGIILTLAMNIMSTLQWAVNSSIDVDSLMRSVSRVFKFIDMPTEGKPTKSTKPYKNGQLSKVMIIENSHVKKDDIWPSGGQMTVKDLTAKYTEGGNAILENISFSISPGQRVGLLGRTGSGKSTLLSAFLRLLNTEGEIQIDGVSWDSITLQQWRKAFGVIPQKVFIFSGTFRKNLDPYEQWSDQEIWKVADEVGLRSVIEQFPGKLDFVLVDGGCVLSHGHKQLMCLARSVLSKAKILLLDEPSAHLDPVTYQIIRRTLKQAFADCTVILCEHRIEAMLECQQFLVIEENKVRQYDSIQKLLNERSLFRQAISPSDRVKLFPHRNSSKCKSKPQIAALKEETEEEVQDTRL
# Description: ii. hBE Equivalent Current (Ieq) Assay
# Primary lung epithelial cells homozygous for the Cystic Fibrosis-causing ΔF508 mutation were differentiated for a minimum of 4 weeks in an air-liquid interface on Costar 24 well HTS filter plates prior to the equivalent current (Ieq) measurements. Cells were apically mucus-washed for 30 minutes 24 h prior to treatment with compounds. The basolateral media was removed and replaced with media containing the compound of interest diluted to its final concentration from DMSO stocks. Treated cells were incubated at 37° C. and 5% CO2 for 24 hours. At the end of the treatment period, the media was changed to the Ieq experimental solution for 30 minutes before the experiment and plates are maintained in a CO2-free incubator during this period. The plates containing the cells were then placed in pre-warmed heating blocks at 36° ° C.±0.5 for 15 minutes before measurements are taken. The transepithelial voltage (VT) and conductance (GT) were measured using a custom 24 channel current clamp (TECC-24) with 24 well electrode manifold. The Ieq assay measurements were made following additions with standardized time periods: • 1. The baseline VT and GT values were measured for approximately 20 minutes. • 2. Benzamil was added to block ENaC for 15 minutes. • 3. Forskolin plus VX-770 (ivacaftor) were added to maximally activate ΔF508-CFTR for 27 minutes. • 4. Bumetanide was added to inhibit the NaK2Cl cotransporter and shut-off secretion of chloride.
# The activity data captured was the area under the curve (AUC) for the traces of the equivalent chloride current. The AUC was collected from the time of the forskolin/VX-770 addition until the inhibition by bumetanide addition. Correction in response to compound treatment was scored as the increase in the AUC for compound-treated samples over that of vehicle-treated samples.
# ΔF508-CFTR [2] = molecular target: T1, ΔF508-CFTR; experiment: Ussing measurements (short-circuit current, CFTRinh-172-inhibitable); assay type: cell-based; conditions: compound at 10 uM and VX-809 at 3 uM, relative to VX-809 (3 uM); hBEs homozygous for ΔF508, 24 hours treatment; CFTRinh-172-inhibitable current
# Description: As discussed above, Ussing measurements can be used to measure CFTR activity. In this method, primary lung epithelial cells (hBEs) homozygous for the Cystic Fibrosis-causing ΔF508 mutation were differentiated for a minimum of 4 weeks in an air-liquid interface on SnapWell filter plates prior to the Ussing measurements. Cells were apically mucus-washed for 30 minutes prior to treatment with compounds. The basolateral media was removed and replaced with media containing the compound of interest diluted to its final concentration from DMSO stocks. Treated cells were incubated at 37° C. and 5% CO2 for 24 hours. At the end of the treatment period, the cells on filters were transferred to the Ussing chamber and equilibrated for 30 minutes. The short-circuit current was measured in voltage clamp-mode (Vhold=0 mV), and the entire assay was conducted at a temperature of 36° C.-36.5° C. Once the voltages stabilized, the chambers were clamped, and data was recorded by pulse readings every 5 seconds. Following baseline current stabilization, the following additions were applied and the changes in current and resistance of the cells was monitored: • 1. Benzamil to the apical chamber to inhibit ENaC sodium channel. • 2. Forskolin to both chambers to activate ΔF508-CFTR by phosphorylation. • 3. Genistein to both chambers to potentiate ΔF508-CFTR channel opening. • 4. CFTRinh-172 to the apical chamber to inhibit ΔF508-CFTR Cl— conductance. The inhibitable current (that current that is blocked by CFTRinh-172) is measured as the specific activity of the ΔF508-CFTR channel, and increases in response to compound in this activity over that observed in vehicle-treated samples are identified as the correction of ΔF508-CFTR function imparted by the compound tested.
SMILES,Ieq (% VX-809) (ΔF508-CFTR [1]),Ussing (% VX-809) (ΔF508-CFTR [2])
O=C(N[C@H]1C[C@H](n2nncc2CO)C1)c1cc(-c2ccccc2)on1,++ *,## (activity ≥200% of VX-809 (3 uM) with compound at 10 uM and VX-809 at 3 uM)
C[C@H](O)c1cnnn1[C@H]1C[C@H](NC(=O)c2cc(-c3ccccc3)on2)C1,** (activity ≥200% of VX-809 (1 uM) with compound at 10 uM and VX-809 at 1 uM),# (activity 100-200% of VX-809 (3 uM) with compound at 10 uM and VX-809 at 3 uM)
C[C@H](O)c1nnc([C@H]2C[C@H](NC(=O)c3cc(-c4ccccc4)on3)C2)s1,** (activity ≥200% of VX-809 (1 uM) with compound at 10 uM and VX-809 at 1 uM),## (activity ≥200% of VX-809 (3 uM) with compound at 10 uM and VX-809 at 3 uM)
C[C@@H](O)c1nnc([C@H]2C[C@H](NC(=O)c3cc(-c4ccccc4)on3)C2)s1,** (activity ≥200% of VX-809 (1 uM) with compound at 10 uM and VX-809 at 1 uM),## (activity ≥200% of VX-809 (3 uM) with compound at 10 uM and VX-809 at 3 uM)
C[C@@H](O)c1nnc(C2CC(NC(=O)c3cc(-c4ccccc4)on3)C2)o1 (stereo partly shown),** (activity ≥200% of VX-809 (1 uM) with compound at 10 uM and VX-809 at 1 uM),## (activity ≥200% of VX-809 (3 uM) with compound at 10 uM and VX-809 at 3 uM)
C[C@H](O)c1nnc(C2CC(NC(=O)c3cc(-c4ccccc4)on3)C2)o1 (stereo partly shown),** (activity ≥200% of VX-809 (1 uM) with compound at 10 uM and VX-809 at 1 uM),## (activity ≥200% of VX-809 (3 uM) with compound at 10 uM and VX-809 at 3 uM)
C[C@@H](O)c1nnc([C@H]2C[C@@H](NC(=O)c3cc(-c4ccccc4)on3)C2)o1,** (activity ≥200% of VX-809 (1 uM) with compound at 10 uM and VX-809 at 1 uM),## (activity ≥200% of VX-809 (3 uM) with compound at 10 uM and VX-809 at 3 uM)
C[C@H](O)c1nnc([C@H]2C[C@@H](NC(=O)c3cc(-c4ccccc4)on3)C2)o1,** (activity ≥200% of VX-809 (1 uM) with compound at 10 uM and VX-809 at 1 uM),## (activity ≥200% of VX-809 (3 uM) with compound at 10 uM and VX-809 at 3 uM)
